Values belong to the molecule of their own block, whether it stands above or below them.
Assays:
[1] = Stability in DMSO / d6-DMSO at room temperature (LCMS, 1H and 19F NMR); type: physicochemical; settings: for stability of DMSO stock solution (in words): LCMS
Method: Key to this was running LCMS analysis on a d6-DMSO NMR sample that was left at room temperature for 6 weeks. Despite also degrading into the carboxylic acid 12, the mass of the other species was different by +6 Daltons compared to the non-deuterated sample. […] To monitor the speed of degradation, a fresh sample was analysed periodically by ^1H and ^19F NMR spectroscopy (Figure 4).

acid ceramidase [2] = target: T1, acid ceramidase (Homo sapiens, UniProt Q13510); experiment: Preincubation acid ceramidase activity assay; type: biochemical; settings: pre-incubated at 0, 1 and 3 h at IC50 concentration, 37°C
T1 construct: if using cell lysate, each well contained 7.45 µL assay buffer; endogenous in cells; host or cells: HEK293 cell lysate (supernatant after freeze-thaw and homogenisation)
T1 sequence (Q13510 22-395): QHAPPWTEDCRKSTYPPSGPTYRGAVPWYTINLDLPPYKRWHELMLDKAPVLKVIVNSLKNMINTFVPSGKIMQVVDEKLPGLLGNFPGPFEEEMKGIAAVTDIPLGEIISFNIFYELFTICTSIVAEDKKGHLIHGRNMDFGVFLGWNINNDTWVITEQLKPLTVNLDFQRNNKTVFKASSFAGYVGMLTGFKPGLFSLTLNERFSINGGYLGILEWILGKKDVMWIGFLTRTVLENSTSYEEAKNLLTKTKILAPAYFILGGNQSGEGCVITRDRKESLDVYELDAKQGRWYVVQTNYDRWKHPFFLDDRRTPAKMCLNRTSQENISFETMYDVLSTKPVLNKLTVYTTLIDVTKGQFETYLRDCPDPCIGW
From the text: A partially degraded sample was purified by reverse-phase chromatography to isolate the DMSO-addition species. Although only a small amount of material was isolated, ^1H NMR spectroscopic analysis was consistent with the proposed structure (Scheme 3). The ^1H NMR data, in particular, were in line with that reported for a related compound (3f, see Supplementary Material). Such reactivity has been reported between N-pivaloyloxybenzamides and sulfoxides in the presence of an iron catalyst. The decomposition reaction to form a sulfoximine reported in this paper should be of interest to the synthetic community as it proceeds cleanly at ambient temperature without the need for reagents nor a catalyst; however, further optimisation of the reaction is beyond the scope of this paper.
Cultured HEK293 cells were grown until 80-90% confluency, collected, and washed twice in PBS. Collected cell pellets were resuspended in 0.2 M sucrose solution and freeze-thawed three times before being homogenised using a syringe and 25 G needle. […] The supernatant was collected, and protein quantified using Bradford reagent. […]
To measure acid ceramidase activity, an assay previously described by Bedia et al., (2010) was miniaturised to a 384-well format. […] Fluorescence was measured using a microplate reader (PHERAstar FSX; BMG Labtech) at excitation and emission wavelengths of 350 nm and 450 nm […]

acid ceramidase [3] = target: T1, acid ceramidase; experiment: in-house cell lysate acid ceramidase inhibition assay (HEK293 cell lysate, RBM14-C12 substrate); type: biochemical
Method: Cultured HEK293 cells were grown until 80-90% confluency, collected, and washed twice in PBS. Collected cell pellets were resuspended in 0.2 M sucrose solution and freeze-thawed three times before being homogenised using a syringe and 25 G needle. Lysed cells were centrifuged at 17,000 g for 30 min at 4°C. The supernatant was collected, and protein quantified using Bradford reagent.
(§1) Acid ceramidase activity assay
(§2) To measure acid ceramidase activity, an assay previously described by Bedia et al., (2010) was miniaturised to a 384-well format. The enzymatic assay was carried out in black flat bottom 384-well plates. Briefly, if using cell lysate, each well contained 7.45 µL assay buffer (25 mM sodium acetate pH 4.5) and 0.05 µL 4 mM RBM14-C12 (Avanti, USA) in ethanol (20 µM final substrate concentration), 2 µg protein in 2.4 µL 0.2 M sucrose, and 0.1 µL compound (control wells contained 0.1 µL DMSO). If using purified acid ceramidase protein (Peak Proteins), the experimental set up was similar, but 100 nM protein was used, and the assay buffer contained 25 mM sodium acetate pH 4.5, 0.1% Pluronic F-127, 0.5 mM EGTA, 0.05% BSA, 1 mM TCEP. Blank wells contained the same reaction mixes but without the protein samples. The reaction started upon addition of the protein sample. The plate was incubated at 37°C for 3 h. The reaction was stopped upon addition of 10 µL fresh detection mix (2.5 mg/mL NaIO4 in 100 mM glycine/NaOH buffer pH 10.6) and the plate incubated for […]

acid ceramidase [4] = target: T1, acid ceramidase; experiment: HTS acid ceramidase assay (modified reported assay, without Saposin D); type: biochemical
From the text: Despite continuing advances in structure-driven research, High-Throughput Screening (HTS) is still a valuable resource to find novel chemical starting points in drug discovery. Recently, the Medicines Discovery Institute initiated an HTS looking for small-molecule inhibitors of acid ceramidase, a lysosomal enzyme. […] This substantial increase in potency can be explained by the fact that to function properly, acid ceramidase requires a co-factor present in cells which was not present in the original HTS assay, Saposin D [4].

acid ceramidase [5] = target: T1, acid ceramidase; experiment: purified protein acid ceramidase inhibition assay; type: biochemical; settings: freshly synthesised sample
Method: as §1, §2

[6] = Reactivity with the amino acid cysteine (LCMS); type: physicochemical; settings: LCMS analysis
From the text: Almost all reported small-molecule inhibitors of acid ceramidase are covalent in their mechanism of action by reaction with cysteine 143 [14, 15, 16, 17, 18, 19, 20, 21, 22]. In some cases, the covalent warhead itself is linked to promiscuity and intrinsic chemical instability. To probe whether 1 was chemically reactive in this way, a sample was stirred with the amino acid cysteine.

[7] = cell lysate assay, supplied (HTS library) samples, read-out: IC50

Compound: O=C(NOC(=O)c1ccc(N2CCCCCC2)c([N+](=O)[O-])c1)c1ccc(OC(F)F)cc1 [compound 1]
stability of DMSO stock solution (in words) [1]: slowly degraded into two species
estimated half-life ([1]; d6-DMSO, room temperature, 1H and 19F NMR integrations against time): just over two days
inhibition after pre-incubation (in words) (acid ceramidase [2]): time-dependent inhibition pattern expected of a covalent inhibitor
IC50 (acid ceramidase [3]; cell lysate assay with addition of EDTA, read-out: IC50): 7 nM
IC50 (acid ceramidase [3]; cell lysate assay with addition of N,N,N′,N′-tetrakis(2-pyridinylmethyl)-1,2-ethanediamine (Zn2+ chelator), read-out: IC50): 8 nM
IC50 (acid ceramidase [3]; cell lysate assay, freshly synthesised sample, read-out: IC50): 3.2 nM
IC50 (acid ceramidase [3]; [7]): 11 nM
IC50 (acid ceramidase [4]; library sample): 340 nM
IC50 (acid ceramidase [5]): 163 nM
stability when stirred with cysteine (in words) [6]: slowly decomposed into two main chemical species

Compound: CC(C)(C)c1ccc(C(=O)NOC(=O)c2ccc(Cl)c(Cl)c2)cc1 [compound 2]
IC50 (acid ceramidase [3]; [7]): 237 nM
inhibition (in words) (acid ceramidase [4]; Figure 1): moderate inhibition

Compound: O=C=Nc1ccc(OC(F)F)cc1 [compound 7]
stability of DMSO stock solution (in words) [1]: fully hydrolysed to 8
IC50 (acid ceramidase [3]): ~100000 nM

Second part, the molecule after the results:

IC50 (acid ceramidase [3]; cell lysate assay, read-out: IC50): ~100000 nM
Compound: O=C(Nc1ccc(OC(F)F)cc1)Nc1ccc(OC(F)F)cc1 [compound 8]

activity (in words) (acid ceramidase [3]; cell lysate assay): inactive
Compound: O=C(O)c1ccc(N2CCCCCC2)c([N+](=O)[O-])c1 [compound 12]

activity (in words) (acid ceramidase [3]; cell lysate assay): no activity
Compound: CS(C)(=O)=NC(=O)c1ccc(OC(F)F)cc1 [compound 13]

Source: publication PMC11548001, “Beware of N-Benzoyloxybenzamides” (Molecules, 2024)
